Assay results published in US7271198B2, “Method of treating autoimmune diseases” (Wake Forest University, priority 2000, dated 2007).

What was measured:
[1] = system: acetylated H3 and H4 histones; assay: Western immunoblot of acetylated H3 and H4 histones in SLE PBMCs; assay type: cell-based, human; conditions: 1000 ng/ml TSA or 20 μM SAHA, 18 hr
Description: The effect of TSA and SAHA was examined to determine if HDIs induce accumulation of acetylated histones in SLE PBMCs on the level of histone acetylation in SLE PBMCs. Following culture of PBMCs in the presence of vehicle, 1000 ng/ml TSA or 20 μM SAHA for 18 hr, histones were isolated.

iNOS mRNA = iNOS mRNA induction in MRL/lpr splenocytes; assay type: cell-based, mouse; conditions: splenocytes from 10 wk old mice, LPS and IFN-γ 24 hr
Excerpt: (§1) Excessive production of nitric oxide (NO) is crucial to the initiation and maintenance of glomerulonephritis in MRL/lpr mice. Pharmacologic inhibition of NO synthesis in MRL/lpr mice abrogates disease progression. In examining whether HDIs could suppress inducible nitric oxide synthetase (iNOS), splenocytes from 10 wk old mice were stimulated in the presence or absence of TSA or SAHA with LPS and IFN-γ for 24 hr. […] To determine whether HDIs could suppress nitric oxide secretion by mesangial cells, mesangial cells were stimulated with LPS ([…]) in the presence of vehicle or TSA for 24 hr. The supernatant from the cell culture was assayed for nitric oxide.

IFN-γ mRNA = IFN-γ mRNA in MRL/lpr splenocytes; assay type: cell-based, mouse
Description: In determining whether TSA can down-regulate IFN-γ mRNA, splenocytes from older, 24-wk MRL/lpr mice were treated with 0 to 500 ng/ml of TSA for 18 hr. […] Compared to splenocytes from 10-wk old mice that had low IFN-γ mRNA (FIG. 8B, lane 1), older mice had higher constitutive levels of IFN-γ transcripts normalized to the housekeeping gene, GAPDH (FIG. 8A, lane 1). […] Maximal inhibition of IFN-γ transcript consistently occurred at 500 ng/ml of TSA.
To establish whether TSA or SAHA down-regulates Con A-induced IFN-γ mRNA expression, splenocytes from 10-wk old mice were stimulated with Con A (10 μg/ml) for 18 hr. From previous kinetic studies, IFN-γ mRNA is maximally expressed when T cells are activated for 18 hr. […] Thus, both TSA and SAHA inhibit IFN-γ. mRNA up-regulation in response to mitogenic stimulation.

mesangial cells = assay: Nitric oxide production by MRL/lpr mesangial cells; assay type: cell-based, mouse; conditions: LPS 1 mg/ml, 24 hr
Excerpt: as §1

CD154 transcript = assay: RT-PCR of CD154 transcript in SLE T cells; assay type: cell-based, human
Excerpt: Because SLE T cells are often activated (D. T. Y. Yu et al., J. Exp. Med. 151, 91 (1980).), the up-regulation of CD154 and IL-10 and down-regulation of IFN-γ may reflect skewed gene expression due to enhanced recruitment of HDACs to the promoters of these genes. The resulting disequilibrium of acetylation might be expected to alter the chromatin structure of the promoters (R. D. Komberg and Y. Lorch, Curr. Opin. Gen. Dev. 9, 148 (1999)), thereby activating previously silenced genes while repressing expressed genes. To determine if TSA can down-regulate CD154 transcript expression, T cells from eight SLE subjects were treated with increasing concentrations of TSA over 18 hr.
T cells were cultured in the absence or presence of increasing concentrations of TSA for 18 hr in 5% CO2 at 37° C. RNA was isolated, cDNAs were prepared, and RT-PCR was performed as previously detailed (D. Laxminarayana, et al., J. Clin. Invest. 92, 2207 (1993)). The primers used were: […]
The reaction mixtures were subjected to 30 cycles of denaturation (94° C., 1 min) and annealing for 1 min at 53° C. (CD154), […] (GAPDH) and 55° C. (IL-10 and IFN-γ). Extension was for 2 min at 72° C. with a final extension of 7 min at 72° C. using a DNA thermal cycler (Perkin-Elmer).
When SLE T cells were activated with phorbol myristate acetate (PMA) and ionomycin (IO), CD154 mRNA content increased 100%, peaked at 3 hr, and waned thereafter (FIGS. 1C and 1D).

`CC(/C=C/C(=O)NO)=C\[C@@H](C)C(=O)c1ccc(N(C)C)cc1` [TSA, Trichostatin A] was tested, and the “accumulation of acetylated H3 and H4 histones” value [1] was “induced the accumulation”, the “iNOS mRNA induction” value (iNOS mRNA) was “able to suppress iNOS mRNA induction” and the “Con A-induced up-regulation of IFN-γ transcript” value (IFN-γ mRNA; splenocytes from 10-wk old mice preincubated 18 hr, Con A 10 μg/ml 18 hr, vs vehicle) was “markedly reduced”. For the same compound, the “TSA concentration of maximal inhibition of IFN-γ transcript” value (IFN-γ mRNA; splenocytes from 24-wk MRL/lpr mice, 0 to 500 ng/ml TSA, 18 hr) was 500 ng/mL, the “LPS-induced nitric oxide production” value (mesangial cells) was “able to suppress” and the “up-regulation of CD154 transcript on PMA+IO activation” value (CD154 transcript; SLE T cells preincubated with TSA 18 hr (1000 ng/ml), then PMA+IO to 24 hr, vs cells not exposed, P<0.001) was “significantly reduced”. The “GAPDH mRNA expression” value (CD154 transcript; SLE T cells, increasing TSA) was “does not modify” and the “maximal inhibition of CD154 transcript” value (CD154 transcript; SLE T cells, increasing TSA (0–1000 ng/ml), 18 hr, relative to GAPDH) was 60%.
